Consider 19 compounds from patent US8414950B2, “High-purity rebaudioside D and low-calorie table top tablet containing the same” (PureCircle Sdn Bhd, priority 2009, dated 2013).

For data set [1] the following is noted: Table 2 and related-art text; cited from earlier work.
The conditions of data set [2]: Table 2; cited from earlier work.
The conditions of data set [3]: cited from earlier work; for Relative sweetness: Table 2, relative to sucrose; for Sweetness potency, times higher than sucrose: related art; for Sweetness power: standard sweetening power, saccharose = 1.
Another data set in a line: Solubility in water. To be noted: high purity Rebaudioside D of the invention; increases with temperature. It is filed as physicochemical. From the text: Solubility in water is around 0.2% which is increasing with increase in temperature. It precipitates again upon cooling the solution. Highly soluble during chromatographic separation stage and before crystallizing.

The nature of data set [4]: Solubility in organic solvents. It is filed as physicochemical. From the text: Soluble in diluted solutions of methanol, ethanol, n-propanol, and isopropanol.
Insoluble in acetone, benzene, chloroform, and ether.

A short description of another data set: Heat and pH stability. Type of data set: physicochemical.
Data set [5] in a line: Quality of taste (sensory attributes). From the text: Rebaudioside D is isolated and extracted, along with other steviol glycosides, from the Stevia rebaudiana Bertoni plant (“Stevia”), which is commercially cultivated in Japan, Taiwan, Malaysia, South Korea, China, Israel, India, Brazil, Australia, and Paraguay.
Data set [6] is described as follows: Sweetness power / relative sweetness compared with sucrose. To be noted: high purity Rebaudioside D of the invention, compared to 10% sucrose solution.

Entries after “also recorded” stand apart in the source; their conditions may differ. Where a SMILES comes first, the peptide text is derived from it.

As to `C=C1C[C@@]23CC[C@H]4[C@@](C)(CCC[C@@]4(C)C(=O)O)[C@@H]2CC[C@]1(O)C3` [Steviol], the Quality of taste entry in data set [1] is listed as “Very bitter”.

As to `C=C1C[C@@]23CC[C@H]4[C@@](C)(CCC[C@@]4(C)C(=O)O[C@@H]4O[C@H](CO)[C@@H](O)[C@H](O)[C@H]4O)[C@@H]2CC[C@]1(O[C@@H]1O[C@H](CO)[C@@H](O)[C@H](O)[C@H]1O[C@@H]1O[C@@H](C)[C@H](O)[C@@H](O)[C@H]1O)C3` [Dulcoside A], in data set [2], the “Solubility in water, %” value is reported as 0.58%. In addition, in data set [3], the Relative sweetness is reported as 30 and the “Sweetness potency, times higher than sucrose” value (from here on “Sweetness potency”) was “around 30 times”. The Quality of taste result in data set [1] is “Very bitter”.

As to `O=C1NS(=O)(=O)c2ccccc21` [Saccharine], in data set [3], the Sweetness power is 300.

In the case of `C[C@@H](NC(=O)[C@@H](N)CC(=O)O)C(=O)NC1C(C)(C)SC1(C)C` [Alitame], the Sweetness power in data set [3] was 2000.

Rebaudioside B: the “Solubility in water, %” value in data set [2] was 0.10%. Besides, in data set [3], the Relative sweetness is recorded as 150. In data set [1], the Quality of taste result was “Bitter”.

As for `C=C1C[C@@]23CC[C@H]4[C@@](C)(CCC[C@@]4(C)C(=O)O)[C@@H]2CC[C@]1(O[C@@H]1O[C@H](CO)[C@@H](O)[C@H](O)[C@H]1O[C@@H]1O[C@H](CO)[C@@H](O)[C@H](O)[C@H]1O)C3` [Steviolbioside], the “Solubility in water, %” value in data set [2] is 0.03%. Besides, the Relative sweetness in data set [3] was 90. For the same compound, the Quality of taste result in data set [1] is on record as “Unpleasant”.

Regarding `C=C1C[C@@]23CC[C@H]4[C@@](C)(CCC[C@@]4(C)C(=O)O[C@@H]4O[C@H](CO)[C@@H](O)[C@H](O)[C@H]4O)[C@@H]2CC[C@]1(O[C@@H]1O[C@H](CO)[C@@H](O)[C@H](O[C@@H]2O[C@H](CO)[C@@H](O)[C@H](O)[C@H]2O)[C@H]1O[C@@H]1O[C@H](CO)[C@@H](O)[C@H](O)[C@H]1O)C3` [Rebaudioside A], the “Solubility in water, %” value in data set [2] was 0.80%. Further, in data set [3], the Relative sweetness is 200-400 and the Sweetness power is given as 450. Also, the Quality of taste entry in data set [1] is reported as “most favorable sensory attributes of the four major steviol glycosides; also recorded: Less Bitter”.

In the case of `COC(=O)[C@H](Cc1ccccc1)NC(=O)[C@@H](N)CC(=O)O` [Aspartame] (H-Asp-Phe-OMe), the Sweetness power in data set [3] is reported as 200.

For `OC[C@H]1O[C@@](CO)(O[C@H]2O[C@H](CO)[C@@H](O)[C@H](O)[C@H]2O)[C@@H](O)[C@@H]1O` [Saccharose], the Sweetness power in data set [3] is recorded as 1.

For Thaumatin, in data set [3], the Sweetness power is given as 3000.

Regarding `C=C1C[C@@]23CC[C@H]4[C@@](C)(CCC[C@@]4(C)C(=O)O[C@@H]4O[C@H](CO)[C@@H](O)[C@H](O)[C@H]4O)[C@@H]2CC[C@]1(O[C@@H]1O[C@H](CO)[C@@H](O)[C@H](O)[C@H]1O[C@@H]1O[C@H](CO)[C@@H](O)[C@H](O)[C@H]1O)C3` [Stevioside], the “Solubility in water, %” value in data set [2] was 0.13%. Besides, in data set [3], the Relative sweetness is given as 210; the “Sweetness potency” value is given as “around 210 times”; the Sweetness power is given as 200. Further, in data set [1], the Quality of taste entry was “Bitter”.

On to `OC[C@H]1O[C@H](O[C@]2(CCl)O[C@H](CCl)[C@@H](O)[C@@H]2O)[C@H](O)[C@@H](O)[C@H]1Cl` [Sucralose], for which, in data set [3], the Sweetness power was 600.

As for Rebaudioside C, in data set [2], the “Solubility in water, %” value is listed as 0.21%. In data set [3], the Relative sweetness is 30 and the “Sweetness potency” value was “around 30 times”. Besides, in data set [1], the Quality of taste result is “Bitter”.

`CC1=CC(=O)NS(=O)(=O)O1` [Acesulfame-K]: the Sweetness power in data set [3] is recorded as 200.

With `CC1(C)[C@@H](O[C@H]2O[C@H](C(=O)O)[C@@H](O)[C@H](O)[C@H]2O[C@@H]2O[C@H](C(=O)O)[C@@H](O)[C@H](O)[C@H]2O)CC[C@]2(C)[C@H]3C(=O)C=C4[C@@H]5C[C@@](C)(C(=O)O)CC[C@]5(C)CC[C@@]4(C)[C@]3(C)CC[C@@H]12` [Glycyrrhizin], the Sweetness power in data set [3] is on record as 50.

For the compound `C=C1C[C@@]23CC[C@H]4[C@@](C)(CCC[C@@]4(C)C(=O)O[C@@H]4O[C@H](CO)[C@@H](O)[C@H](O)[C@H]4O[C@@H]4O[C@H](CO)[C@@H](O)[C@H](O)[C@H]4O)[C@@H]2CC[C@]1(O[C@@H]1O[C@H](CO)[C@@H](O)[C@H](O)[C@H]1O[C@@H]1O[C@H](CO)[C@@H](O)[C@H](O)[C@H]1O)C3` [Rebaudioside E], in data set [2], the “Solubility in water, %” value was 1.70%. Moreover, in data set [3], the Relative sweetness is listed as 170. The Quality of taste result in data set [1] is “Like sucrose”.

As to `COc1ccc(CCC(=O)c2c(O)cc(O[C@@H]3O[C@H](CO)[C@@H](O)[C@H](O)[C@H]3O[C@@H]3O[C@@H](C)[C@H](O)[C@@H](O)[C@H]3O)cc2O)cc1O` [NHDC, neohesperidin dihydrochalcone], the Sweetness power in data set [3] was 1000.

As to `C=C1C[C@@]23CC[C@H]4[C@@](C)(CCC[C@@]4(C)C(=O)O[C@@H]4O[C@H](CO)[C@@H](O)[C@H](O)[C@H]4O)[C@@H]2CC[C@]1(O[C@@H]1O[C@H](CO)[C@@H](O)[C@H](O)[C@H]1O)C3` [Rubusoside], in data set [3], the Relative sweetness is listed as 110. For the same compound, in data set [1], the Quality of taste result is “Very bitter”.

Regarding `C=C1C[C@@]23CC[C@H]4[C@@](C)(CCC[C@@]4(C)C(=O)O[C@@H]4O[C@H](CO)[C@@H](O)[C@H](O)[C@H]4O[C@@H]4O[C@H](CO)[C@@H](O)[C@H](O)[C@H]4O)[C@@H]2CC[C@]1(O[C@@H]1O[C@H](CO)[C@@H](O)[C@H](O[C@@H]2O[C@H](CO)[C@@H](O)[C@H](O)[C@H]2O)[C@H]1O[C@@H]1O[C@H](CO)[C@@H](O)[C@H](O)[C@H]1O)C3` [Rebaudioside D], in “Solubility in water”, the Solubility in water entry is on record as “around 0.2%”. The “Solubility in non-alcohol organic solvents” value in data set [4] (acetone, benzene, chloroform, and ether) was “Insoluble”. Moreover, the “Solubility in diluted alcohols” value in data set [4] (diluted solutions of methanol, ethanol, n-propanol, and isopropanol) is “Soluble”. Besides, the “Heat and pH stability” value in the data set “Heat and pH stability” is “heat and pH-stable”. Besides, in data set [2], the “Solubility in water, %” value is given as 1.00%. Moreover, the Relative sweetness in data set [3] is reported as 220. The “Bitterness and aftertaste / sensory properties” value in data set [5] (amongst the sweet diterpenoid glycosides of Stevia) is “the least bitter, and with the least persistent aftertaste”; in data set [5] (amongst the sweet diterpenoid glycosides of Stevia; listed as Rebaudioside 1)), “excellent sensory properties”. In addition, in data set [6], the “times sweeter than sugar” value is 180-200 times. Besides, the Quality of taste result in data set [1] is on record as “Like sucrose”.
